Assays:
[1] = tested on: ALS subjects with pseudobulbar affect; assay: Clinical Study #4: QOL and QOR visual analog scales; assay type: in vivo, human
Method: Subjects completed the CNS-LS questionnaire and visual analog scales assessing quality of life (QOL) and quality of relationships (QOR) every two weeks (Days 1, 15, and 29) during the treatment period. A clinical psychologist, or other approved clinician, administered the Hamilton Rating Scale for Depression (HRSD) at the Screening Visit and on Day 29. Safety was evaluated on Day 15 and Day 29 by examining adverse events, results of physical examinations, vital signs, clinical laboratory values, and resting electrocardiograms (ECGs). In addition to blood samples taken to provide clinical laboratory data, blood was also taken for pharmacokinetic analysis and CYP2D6 genotyping. Each subject completed a diary in which the number of episodes experienced, medications taken, and any adverse events were recorded daily.
The primary efficacy variable was the CNS-LS score. All efficacy variables involving a change were determined by the baseline score being subtracted from the mean of the non-missing scores on Days 15 and 29. The secondary efficacy variables were laughing/crying episodes, QOL scores, and QOR scores. […]
Secondary efficacy was assessed by using two, 10-cm visual analog scales (VAS). One scale asked subjects to rate how much uncontrollable laughter, tearfulness, or anger had affected the overall quality of their life during the past week, and one scale asked subjects to rate how much uncontrollable laughter, tearfulness, or anger had affected the quality of their relationships with others during the past week. Each scale required less than one minute to complete. The subjects recorded episodes of pathological laughing and crying in a diary daily.

[2] = Clinical Study #4: concentrations of DM, DX and Q in plasma on Day 29; assay type: in vivo, human; conditions: blood collection within 8 hours of last dose
Method: Values were obtained for systolic and diastolic blood pressure, heart rate, and respiration rate on the screening visit and all other study visits. All values outside the pre-defined ranges were flagged in the subject data listings. Electrocardiography (twelve lead) was used to obtain ventricular rate (VR), QT, Q-Tc intervals, […] (PR), and QRS duration. A blood sample (10 mL whole blood) was taken from each subject at the Screening Visit for CYP2D6 genotyping to determine which subjects were poor metabolizers of DM and which were extensive metabolizers. Blood samples were taken on Day 29 for the determination of concentrations of DM, DX, and Q in plasma. The relationship between the concentration of drug in plasma and changes in CNS-LS scores was determined, and the effect of the CYP2D6 genotype on this relationship was evaluated.
Q in this combination product inhibits the rapid first-pass metabolism of DM.

[3] = Clinical Study #1: adverse events in dextromethorphan phenotyping and quinidine dose determination study; conditions: single oral dose 30 mg capsule; headache, mild
Method: A phenotyping study directed to dextromethorphan was conducted. The study was an open-label single dose study. Subjects were screened to ensure they met the inclusion and exclusion criteria. Subjects received a single oral dose of dextromethorphan hydrobromide 30 mg capsule taken with 240 mL of tap water. A total of fifty-eight subjects were screened and fifty subjects dosed. The study determined each subject's ability to metabolize dextromethorphan. Subjects who met the inclusion/exclusion criteria remained in house for dosing. Each subject was administered one 30 mg capsule (P.M.) of dextromethorphan. Urine was collected predose through 12 hours postdose and analyzed for dextromethorphan and dextrorphan.
The study was an open-label, randomized, multiple dose study. Subjects identified as extensive metabolizers received an evening dose on Day 1, at 12-hour intervals for the next six days, with a final morning dose on Day 8. All subjects were instructed to dose themselves at home on eight occasions with medication dispensed to them. Subjects maintained a diary during the study to record adverse effects. […]
A total of eight blood samples (40 mL) were drawn during the study (including the dextromethorphan screen) for drug analysis. […] At the end of the interval, the total volume was recorded and two aliquots were frozen at −20° C. until assayed for dextromethorphan and dextrorphan.

[4] = Clinical Study #2: plasma pharmacokinetics of dextromethorphan, dextrorphan and quinidine, single and multiple dose; conditions: for AUC(0-t) / Cmax / half-life / Tmax: human, in vivo, mean, 30 mg DM HBr/25 mg Q sulfate capsule every 12 hours; for AUC(0-t): AUC (0-12) (plasma); for Cmax: Cmax (plasma); for half-life: T ½ el (plasma); for Tmax: Tmax (plasma)
Method: Descriptive statistics for each parameter, including mean, median, standard deviation, coefficient of variation, N, minimum, and maximum were calculated for all of the subjects by Day. In addition, descriptive statistics were presented by the subgroups: extensive metabolizer (EM) and poor metabolizer (PM).
The ANOVA model included the factors group (EM or PM), subject within group, day, and the interaction term day by group. The group effect was tested using the subject within group mean square, and all other main effects were tested using the residual error (error mean square). In addition, tests of the hypotheses Day 1=Day 4, Day 1=Day 8, and Day 4=Day 8 were performed.

[5] = Clinical Study #5: concentrations in plasma of DM, DX and Q and correlation with pain intensity; assay type: in vivo, human; conditions: final visit; for Concentration in plasma, Mean / Concentration in plasma, Median: extensive metabolizers
Method: Subjects visited the clinic every two weeks during the four-week duration of the study and were contacted by telephone during weeks without clinic visits. At each subsequent study visit or weekly phone call, the subjects were given the Pain Intensity Rating Scale and the Pain Relief Rating Scale and were queried regarding any adverse events that might have occurred since their previous visit. Subjects were administered the Peripheral Neuropathy Quality of Life (QOL) Instrument on Days 1 and 29 (or the final visit). Blood samples were taken at the visits on Day 15 and Day 29 to determine concentrations in plasma of DM, DX, and Q.

[6] = All Days: mean of scores on Days 15 and 29 minus Day 1

COc1ccc2c(c1)[C@]13CCCCC1[C@H](C2)N(C)CC3 (single isomer, unassigned; (+)) [Dextromethorphan, (+)-3-methoxy-N-methylmorphinan]
Change in VAS QOL score, Max [1, 6]: 27
Change in VAS QOL score, Mean [1, 6]: −17.41
Change in VAS QOL score, Median [1, 6]: −11.0
Change in VAS QOL score, Min [1, 6]: −90.5
Change in VAS QOR score, Max [1, 6]: 23.5
Change in VAS QOR score, Mean [1, 6]: −9.98
Change in VAS QOR score, Median [1, 6]: −4.50
Change in VAS QOR score, Min [1, 6]: −71.0
Change in VAS QOL score, Max ([1]; Day 15 minus Day 1): 55
Change in VAS QOL score, Mean ([1]; Day 15 minus Day 1): −17.14
Change in VAS QOL score, Median ([1]; Day 15 minus Day 1): −13
Change in VAS QOL score, Min ([1]; Day 15 minus Day 1): −90
Change in VAS QOR score, Max ([1]; Day 15 minus Day 1): 34
Change in VAS QOR score, Mean ([1]; Day 15 minus Day 1): −11.75
Change in VAS QOR score, Median ([1]; Day 15 minus Day 1): −7
Change in VAS QOR score, Min ([1]; Day 15 minus Day 1): −71
Change in VAS QOL score, Max ([1]; Day 29 minus Day 1): 27
Change in VAS QOL score, Mean ([1]; Day 29 minus Day 1): −19.31
Change in VAS QOL score, Median ([1]; Day 29 minus Day 1): −7
Change in VAS QOL score, Min ([1]; Day 29 minus Day 1): −91
Change in VAS QOR score, Max ([1]; Day 29 minus Day 1): 26
Change in VAS QOR score, Mean ([1]; Day 29 minus Day 1): −10.38
Change in VAS QOR score, Median ([1]; Day 29 minus Day 1): −3.0
Change in VAS QOR score, Min ([1]; Day 29 minus Day 1): −71
concentration of DM in plasma, Max [2]: 15.81
concentration of DM in plasma, Mean [2]: 5.18
concentration of DM in plasma, Median [2]: 4.55
concentration of DM in plasma, Min [2]: 0.35
Adverse effects reported during the phenotyping study [3]: One
AUC(0-t) ([4]; Day 1, All Subjects): 148 ng·h/mL
AUC(0-t) ([4]; Day 1, EM): 133 ng·h/mL
AUC(0-t) ([4]; Day 1, PM): 198 ng·h/mL
AUC(0-t) ([4]; Day 4, All Subjects): 886 ng·h/mL
AUC(0-t) ([4]; Day 4, EM): 812 ng·h/mL
AUC(0-t) ([4]; Day 4, PM): 1150 ng·h/mL
AUC(0-t) ([4]; Day 8, All Subjects): 1160 ng·h/mL
AUC(0-t) ([4]; Day 8, EM): 1050 ng·h/mL
AUC(0-t) ([4]; Day 8, PM): 1530 ng·h/mL
Cmax ([4]; Day 1, All Subjects): 17.3 ng/mL
Cmax ([4]; Day 1, EM): 15.9 ng/mL
Cmax ([4]; Day 1, PM): 22.3 ng/mL
Cmax ([4]; Day 4, All Subjects): 83.1 ng/mL
Cmax ([4]; Day 4, EM): 76.7 ng/mL
Cmax ([4]; Day 4, PM): 106 ng/mL
Cmax ([4]; Day 8, All Subjects): 105 ng/mL
Cmax ([4]; Day 8, EM): 95.5 ng/mL
Cmax ([4]; Day 8, PM): 136 ng/mL
half-life ([4]; Day 8, All Subjects): 20.3 h
half-life ([4]; Day 8, EM): 13.1 h
half-life ([4]; Day 8, PM): 42 h
Tmax ([4]; Day 1, All Subjects): 7.11 h
Tmax ([4]; Day 1, EM): 6.85 h
Tmax ([4]; Day 1, PM): 8 h
Tmax ([4]; Day 4, All Subjects): 5.55 h
Tmax ([4]; Day 4, EM): 5.42 h
Tmax ([4]; Day 4, PM): 6 h
Tmax ([4]; Day 8, All Subjects): 5.77 h
Tmax ([4]; Day 8, EM): 5.99 h
Tmax ([4]; Day 8, PM): 4.99 h
Fold increase in AUC (0-12) from Day 1 to Day 8 ([4]; poor metabolizers): 6.1 fold
Concentration in plasma, Mean ([5]; DM/Q MTD 30 mg): 59.0 ng/mL
Concentration in plasma, Median ([5]; DM/Q MTD 30 mg): 67.4 ng/mL
Concentration in plasma, Mean ([5]; DM/Q MTD 60 mg): 46.2 ng/mL
Concentration in plasma, Median ([5]; DM/Q MTD 60 mg): 1.5 ng/mL
Concentration in plasma, Mean ([5]; DM/Q MTD 90 mg): 117.0 ng/mL
Concentration in plasma, Median ([5]; DM/Q MTD 90 mg): 117.0 ng/mL
Concentration in plasma, Mean ([5]; DM/Q MTD 120 mg): 192.6 ng/mL
Concentration in plasma, Median ([5]; DM/Q MTD 120 mg): 178.0 ng/mL
Concentration in plasma, Mean ([5]; Total, all MTDs): 153.7 ng/mL
Concentration in plasma, Median ([5]; Total, all MTDs): 144.5 ng/mL
Concentration in plasma ([5]; poor metabolizer (MTD of 60 mg)): 126.4 ng/mL

Source: patent US20130072517A1 (Avanir Pharmaceuticals, Inc., priority 2002, published 2013)
